Test results reported in patent US20060275854A1, “Method for monitoring reactions in real time” (priority 2003, published 2006).
“Also recorded” adds a separate entry of the source. One block for each compound: values may come before it.

Legend:
calf intestine ALP = settings: known; cited from earlier work
porcine ALP [1] = settings: known inhibitors; cited from earlier work
porcine ALP [2] = settings: 0.1 mM compound, 0.75 mM AMP, FIG. 5A
Description: The resulting mixture was incubated for another 10 min, followed by the addition of 5 units of porcine ALP (resulting in a concentration of 0.01 units/μL) and further incubation for 75 more minutes. The fluorescence intensity (FALP) was monitored continuously. For the same compound, the fluorescence intensity (FNoALP) of a control reaction with the addition of porcine ALP was also recorded in the same way.

[3] = tested on: anti-ATP signaling aptamer; experiment: Fluorescence signaling of the structure-switching ATP aptamer reporter on target addition; assay type: binding; settings: for fluorescence intensity increase over the background reading: 750 μM target, FIG. 1B
[4] = tested on: Adenosine Deaminase (ADA); experiment: Adenosine deaminase activity and inhibition monitored by signaling aptamer; assay type: biochemical
Description: Adenosine deaminase transforms adenosine into inosine. […] Thus conversion from adenosine to inosine results in a decrease in fluorescent signal. […] EHNA is a known inhibitor of adenosine deaminase.
After 3 minutes, different concentrations of EHNA.HC1, an adenosine deaminase inhibitor, in DMSO were introduced: no inhibitor (blue line), 100 nM inhibitor (green line) and 10 μM inhibitor (red line). The solutions were further incubated for 5 more minutes. […] Finally, the solutions were exposed to an enzyme, called Adenosine Deaminase (ADA), which transforms adenosine into inosine. The aptamer has no affinity for the inosine, so the transformation should induce the disruption of the aptamer—adenosine complex state and the formation of a duplex state with the QDNA.

Compound: Cl.c1ccc(C2CN3CCSC3=N2)cc1 (racemic) [Tetramisole, (±) 2,3,5,6-Tetrahydro-6-phenylimidazo[2,1-b]thiazole hydrochloride]
inhibition of calf intestine ALP (in words) (calf intestine ALP): not calf intestine ALP
Ki (porcine ALP [1]): low mM range
rate of transformation of AMP to adenosine relative to the uninhibited reaction (porcine ALP [2]): considerably reduced

Compound: Cl.c1ccc(C2CN3CCSC3=N2)cc1 (single isomer, unassigned; (-)) [Levamisole, (−) 2,3,5,6-Tetrahydro-6-phenylimidazo[2,1-b]thiazole hydrochloride]
inhibition of calf intestine ALP (in words) (calf intestine ALP): not calf intestine ALP
Ki (porcine ALP [1]): low mM range
rate of transformation of AMP to adenosine relative to the uninhibited reaction (porcine ALP [2]): considerably reduced

Compound: Nc1ncnc2c1ncn2[C@@H]1O[C@H](COP(=O)(O)OP(=O)(O)O)[C@@H](O)[C@H]1O [ADP, adenosine 5′-diphosphate]
fluorescence intensity increase over the background reading [3]: 8.3 fold

Compound: Nc1ncnc2c1ncn2[C@@H]1O[C@H](COP(=O)(O)O)[C@@H](O)[C@H]1O [AMP, adenosine 5′-monophosphate]
affinity of the signaling aptamer for the substance (in words) [3]: moderate affinity
fluorescence intensity increase over the background reading [3]: 5.3 fold

Compound: Nc1ncnc2c1ncn2[C@@H]1O[C@H](COP(=O)(O)OP(=O)(O)OP(=O)(O)O)[C@@H](O)[C@H]1O [ATP, adenosine 5′-triphosphate]
fluorescence intensity increase over the background reading [3]: 6.9 fold

rate of deamination ([4]; 100 nM inhibitor, 1 mM adenosine): slower
rate of deamination ([4]; 10 μM inhibitor, 1 mM adenosine): virtually stopped
rate of deamination ([4]; 10 μM inhibitor, 1 mM adenosine, listed as EHNA.HC1): almost no deamination
rate of deamination ([4]; 100 mM EHNA, FIG. 6): reduced
Compound: CCCCCC[C@@H]([C@@H](C)O)n1cnc2c(N)ncnc21.Cl [EHNA]

Compound: Nc1ncnc2c1ncn2[C@@H]1O[C@H](CO)[C@@H](O)[C@H]1O [adenosine]
affinity of the signaling aptamer for the substance (in words) [3]: higher affinity
fluorescence intensity increase over the background reading [3]: 8.1 fold

Compound: OC[C@H]1O[C@@H](n2cnc3c(O)ncnc32)[C@H](O)[C@@H]1O [inosine]
affinity of the signaling aptamer for the substance (in words) [3]: virtually no affinity; also recorded: no affinity at all
